The text below walks through data of PubChem BioAssay (NCI).

Structures are written as SMILES.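 Cells were grown in 96-well plates and exposed to each compound for 48 hours at five concentrations; endpoints were interpolated linearly between bracketing concentrations, or set to the highest concentration if not reached. Abbreviation: GI50, concentration required for 50% inhibition of growth. At the TGI there is no net growth.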

Among the test systems are A498 renal; HCT-116 colon; IGROV1 ovarian; NCI/ADR-RES ovarian; OVCAR-5 ovarian; RPMI-8226 leukemia; SK-MEL-5 melanoma; SNB-19 CNS; SNB-75 CNS; PC-3 prostate.
Test in all cases: growth of human tumour cells (NCI), 48 h

Regarding `CC(NCCS(=O)(=O)O)C(=O)O` (configuration not stated), the TGI with A498 renal, in the test on HCT-116 colon, with IGROV1 ovarian, in the test with NCI/ADR-RES ovarian, with OVCAR-5 ovarian and with RPMI-8226 leukemia was > 100 µM throughout. In addition, the TGI with SK-MEL-5 melanoma, with SNB-19 CNS and in the test with SNB-75 CNS was > 100 µM throughout.

For `O=C(c1cccs1)N(C(=O)N1CCC(c2ccccc2)CC1)c1ccccc1`, the TGI in the test with A498 renal, in the test on HCT-116 colon, with IGROV1 ovarian, in the test on NCI/ADR-RES ovarian, in the test with OVCAR-5 ovarian and with PC-3 prostate was > 100 µM each time. The TGI in the test on RPMI-8226 leukemia is 70.3 µM; with SK-MEL-5 melanoma it was 38.8 µM; in the test on SNB-19 CNS it was > 100 µM.

`CCn1c2c(c3c(C(=O)OC)c(O)ccc31)C(=O)c1ccccc1C2=O`: the TGI with HCT-116 colon was determined as 26.5 µM; in the test on IGROV1 ovarian, 15.3 µM; in the test with NCI/ADR-RES ovarian it was 66 µM; with OVCAR-5 ovarian, 42.5 µM; in the test on PC-3 prostate, 42.7 µM; in the test with RPMI-8226 leukemia it was 27.2 µM. Moreover, the TGI is 27.6 µM in the test with SK-MEL-5 melanoma, > 100 µM in the test with SNB-19 CNS and 39.9 µM in the test with SNB-75 CNS.

Regarding `CCCCCC(C)C[C@H]1CO[C@H](c2ccc[nH]2)N[C@H]1C(=O)OC` (some centres not stated), the TGI in the test with A498 renal, in the test on HCT-116 colon, with IGROV1 ovarian, in the test with NCI/ADR-RES ovarian, in the test on OVCAR-5 ovarian and in the test with PC-3 prostate was > 100 µM in each case. Also, the TGI with RPMI-8226 leukemia, with SK-MEL-5 melanoma and in the test with SNB-19 CNS was > 100 µM in each case.

Take `COc1ccc(CNc2nc3ccccc3nc2-c2cccs2)cc1`: the TGI in the test with A498 renal, with HCT-116 colon, in the test on IGROV1 ovarian, with NCI/ADR-RES ovarian, in the test on OVCAR-5 ovarian and with RPMI-8226 leukemia was > 100 µM throughout. Besides, the TGI in the test on SK-MEL-5 melanoma and in the test on SNB-75 CNS was > 100 µM in each case.

Take `Nc1nc(N)c2ncn(CC(CO)CC(c3ccccc3)P(=O)(O)O)c2n1` (configuration not stated): the TGI in the test with A498 renal, with HCT-116 colon, with IGROV1 ovarian, in the test with OVCAR-5 ovarian, in the test on RPMI-8226 leukemia and in the test with SK-MEL-5 melanoma was > 100 µM in each case. The TGI in the test on SNB-19 CNS and in the test with SNB-75 CNS was > 100 µM in each case.

For `COc1ccc(-c2cn3ccnc3c(-c3ccc4ncn(C5CCCCC5)c4c3)n2)cc1`, the GI50 with A498 renal is 0.742 µM; in the test on HCT-116 colon, 0.399 µM; with IGROV1 ovarian it was 0.921 µM; in the test on PC-3 prostate it was 0.621 µM; in the test with RPMI-8226 leukemia, 2.96 µM; in the test on SK-MEL-5 melanoma, 0.698 µM. In addition, the GI50 in the test with SNB-19 CNS is 0.836 µM; in the test with SNB-75 CNS it was 0.733 µM. In addition, the TGI in the test on A498 renal is > 100 µM; with HCT-116 colon it was 4.06 µM; with IGROV1 ovarian, > 100 µM; in the test with PC-3 prostate, > 100 µM; in the test with RPMI-8226 leukemia, > 100 µM; in the test with SK-MEL-5 melanoma, 3.2 µM. In addition, the TGI with SNB-19 CNS and in the test on SNB-75 CNS was > 100 µM throughout.

For `C/C(=N/O)c1cccc(Nc2nc3ccccc3c3[nH]c4ccccc4c23)c1`, the TGI with HCT-116 colon was 4.77 µM; in the test with IGROV1 ovarian it was 13.3 µM; in the test with NCI/ADR-RES ovarian it was 20 µM; in the test on OVCAR-5 ovarian, 9.27 µM; in the test with PC-3 prostate, 8.05 µM; in the test on SK-MEL-5 melanoma, 4.08 µM. The TGI in the test with SNB-19 CNS stood at 19.2 µM; with SNB-75 CNS it was 6.95 µM.

`CC(=O)C(=C(I)I)c1ccccc1`: the TGI was determined as 40.7 µM with A498 renal; 29.4 µM with HCT-116 colon; 54.7 µM in the test with IGROV1 ovarian; 49 µM in the test with NCI/ADR-RES ovarian; 45.7 µM in the test on OVCAR-5 ovarian; 83.8 µM in the test on PC-3 prostate. The TGI was 28.5 µM with SK-MEL-5 melanoma and 37.2 µM in the test on SNB-19 CNS.

As to `Nc1cc(CO)cc(Nc2c3ccccc3nc3occc23)c1`, the TGI in the test on A498 renal is > 100 µM; in the test on HCT-116 colon, 73.7 µM; in the test with IGROV1 ovarian it was 90.8 µM; with NCI/ADR-RES ovarian it was 62.6 µM; in the test on OVCAR-5 ovarian, > 100 µM; in the test on PC-3 prostate, > 100 µM. In addition, the figures for the TGI with RPMI-8226 leukemia, with SK-MEL-5 melanoma and in the test on SNB-19 CNS were > 100 µM, 58.9 µM and > 100 µM, respectively.

`OC1CN=C2c3ccccc3C(O)(c3ccc(Cl)cc3)N2C1` (configuration not stated): the TGI in the test on HCT-116 colon, in the test on IGROV1 ovarian, in the test on NCI/ADR-RES ovarian, with OVCAR-5 ovarian, with PC-3 prostate and in the test on RPMI-8226 leukemia was > 100 µM each time. Further, the figures for the TGI in the test with SNB-19 CNS and in the test on SNB-75 CNS were > 100 µM and 91.9 µM, respectively.

Turning to `COc1cc2c(cc1OCCCC(=O)Nc1cc(C(=O)Nc3cc(C(=O)NCCCN(C)C)n(C)n3)n(C)n1)N=CC1CCCN1C2=O` (configuration not stated), the TGI stood at 59.2 µM in the test with A498 renal; 34 µM with HCT-116 colon; 28.2 µM in the test with IGROV1 ovarian; 57.3 µM in the test on NCI/ADR-RES ovarian; 37.7 µM in the test on OVCAR-5 ovarian; 99.3 µM in the test with PC-3 prostate. Besides, the TGI amounted to 40.3 µM in the test on RPMI-8226 leukemia, 30.1 µM in the test with SK-MEL-5 melanoma and 34.2 µM in the test with SNB-19 CNS.

Regarding `S=C1CC(c2ccc(Cl)cc2)Sc2ccccc2N1` (configuration not stated), the TGI with HCT-116 colon, with IGROV1 ovarian, in the test on NCI/ADR-RES ovarian, in the test with OVCAR-5 ovarian, in the test on PC-3 prostate and with RPMI-8226 leukemia was > 100 µM each time. Besides, the TGI was > 100 µM in the test with SK-MEL-5 melanoma, 94 µM in the test with SNB-19 CNS and > 10 µM in the test with SNB-75 CNS.

Regarding `COc1ccc2nc3c([N+](=O)[O-])ccc4c3c(c2c1)NCCN4C`, the TGI in the test on A498 renal turned out to be 3.85 µM; with HCT-116 colon, 2.88 µM; in the test with IGROV1 ovarian it was 4.52 µM; in the test with NCI/ADR-RES ovarian, 7.73 µM; with OVCAR-5 ovarian it was 23 µM; in the test with PC-3 prostate it was 4.54 µM. The TGI in the test with SK-MEL-5 melanoma was 2.86 µM; in the test on SNB-19 CNS, 8.77 µM.
